Results as given in patent US4011322A, “Benzimidazole derivatives and process for the production thereof” (Schering Aktiengesellschaft, priority 1974, dated 1977).

Tested on: stripped skin of volunteers (vasoconstriction / hyperemia)
Test: Vasoconstriction test on stripped skin of volunteers (topical ointment)
Assay type: in vivo, human (volunteers)
Description: The anti-inflammatory effectiveness of the novel benzimidazole derivatives can be determined in the conventional vasoconstriction test, as follows:
On the backs of volunteers for the experiment, the stratum corneum was removed by the application and tearing off of an adhesive strip, applied 20 times at the same spot, thus producing a pronounced hyperemia. Within the stripped area, respectively 50 mg. of ointment was applied to marked areas having a size of 4 cm^2, this ointment containing respectively 0.1, 0.01 or 0.001%, respectively, of the compound to be tested or of the reference substance in a water-oil base. […]
To determine the vasoconstriction, which is a representative syndrome of topical anti-inflammatory activity, the color value of the untreated skin and the treated stripped skin is measured and compared with the color value of the normal skin, with the color value of the normal skin being assigned the value 100 and the color value of the untreated stripped skin being assigned the value 0. Minor, medium, and high-grade vasoconstriction are evaluated with values between 0 and 100.
The results of such tests employing compounds of this invention (Compounds III and IV) and the prior art compounds Clemizole (I) and Flucortolone (II) are shown in Table I below.

[1] = 0.001% in ointment, observation time 1 hour
[2] = 0.001% in ointment, observation time 4 hours
[3] = 0.001% in ointment, observation time 8 hours
[4] = 0.01% in ointment, observation time 1 hour
[5] = 0.01% in ointment, observation time 4 hours
[6] = 0.01% in ointment, observation time 8 hours
[7] = 0.1% in ointment, observation time 1 hour
[8] = 0.1% in ointment, observation time 4 hours
[9] = 0.1% in ointment, observation time 8 hours

CCN1CCN(Cc2nc3ccccc3n2Cc2ccc(Cl)cc2)CC1 [IV, 2-(4-Ethyl-1-piperazinyl)-methyl-1-(4-chlorobenzyl)-benzimidazole]
vasoconstriction (color value; normal skin = 100, untreated stripped skin = 0) [1]: 25 | vasoconstriction (color value; normal skin = 100, untreated stripped skin = 0) [2]: 65 | vasoconstriction (color value; normal skin = 100, untreated stripped skin = 0) [3]: 95 | vasoconstriction (color value; normal skin = 100, untreated stripped skin = 0) [4]: 30 | vasoconstriction (color value; normal skin = 100, untreated stripped skin = 0) [5]: 85 | vasoconstriction (color value; normal skin = 100, untreated stripped skin = 0) [6]: 100

CCN1CCN(Cc2nc3ccccc3n2Cc2ccccc2O)CC1 [III, 2-(4-Ethyl-1-piperazinyl)-methyl-1-(2-hydroxybenzyl)-benzimidazole]
vasoconstriction (color value; normal skin = 100, untreated stripped skin = 0) [1]: 15 | vasoconstriction (color value; normal skin = 100, untreated stripped skin = 0) [2]: 15 | vasoconstriction (color value; normal skin = 100, untreated stripped skin = 0) [3]: 20 | vasoconstriction (color value; normal skin = 100, untreated stripped skin = 0) [4]: 35 | vasoconstriction (color value; normal skin = 100, untreated stripped skin = 0) [5]: 55 | vasoconstriction (color value; normal skin = 100, untreated stripped skin = 0) [6]: 55 | vasoconstriction (color value; normal skin = 100, untreated stripped skin = 0) [7]: 45 | vasoconstriction (color value; normal skin = 100, untreated stripped skin = 0) [8]: 80 | vasoconstriction (color value; normal skin = 100, untreated stripped skin = 0) [9]: 85

C[C@@H]1C[C@H]2[C@@H]3C[C@H](F)C4=CC(=O)C=C[C@]4(C)[C@H]3[C@@H](O)C[C@]2(C)[C@H]1C(=O)CO [II, 6 α-Fluoro-11β,21-dihydroxy-16α-methyl-1,4-pregnadiene-3,20-dione]
vasoconstriction (color value; normal skin = 100, untreated stripped skin = 0) [1]: 20 | vasoconstriction (color value; normal skin = 100, untreated stripped skin = 0) [2]: 50 | vasoconstriction (color value; normal skin = 100, untreated stripped skin = 0) [3]: 60 | vasoconstriction (color value; normal skin = 100, untreated stripped skin = 0) [4]: 15 | vasoconstriction (color value; normal skin = 100, untreated stripped skin = 0) [5]: 65 | vasoconstriction (color value; normal skin = 100, untreated stripped skin = 0) [6]: 85 | vasoconstriction (color value; normal skin = 100, untreated stripped skin = 0) [7]: 35 | vasoconstriction (color value; normal skin = 100, untreated stripped skin = 0) [8]: 75 | vasoconstriction (color value; normal skin = 100, untreated stripped skin = 0) [9]: 85

Clc1ccc(Cn2c(CN3CCCC3)nc3ccccc32)cc1 [I, 1-4'Chlorobenzyl-2-pyrrolidinomethyl-benzimidazole]
vasoconstriction (color value; normal skin = 100, untreated stripped skin = 0) [4]: 18 | vasoconstriction (color value; normal skin = 100, untreated stripped skin = 0) [5]: 31 | vasoconstriction (color value; normal skin = 100, untreated stripped skin = 0) [6]: 33 | vasoconstriction (color value; normal skin = 100, untreated stripped skin = 0) [7]: 18 | vasoconstriction (color value; normal skin = 100, untreated stripped skin = 0) [8]: 35 | vasoconstriction (color value; normal skin = 100, untreated stripped skin = 0) [9]: 45
